Experimental data taken from patent US10781224B2, “Bis(oxymethyl)phosphinic acid and biogenic metal salts thereof as regulators of plant growth and development” (priority 2016, dated 2020).

System: corn (Krasnodar 385 MV variety)
Test: Corn seed treatment with BHMPA salts: germinating power
Type: in vivo
Outline: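 Seeds (50 per Petri dish on two layers of filter paper) soaked 1 h in BHMPA or its Ca, Mg, Na, Co, Mn, Cu or Zn salts at 1·10^−6-1·10^−12%, with water controls. Germination energy read on day 4, germination on day 8 (wheat) or day 7 (rice, corn), as % means of four replicates. Germinating power taken as root and sprout length plus wet and dry mass per 100 seedlings.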

[1] = corn seeds, solution concentration 1 · 10^−6%, zinc salt of BHMPA
[2] = corn seeds, solution concentration 1 · 10^−7%, zinc salt of BHMPA
[3] = corn seeds, solution concentration 1 · 10^−8%, zinc salt of BHMPA
[4] = corn seeds, solution concentration 1 · 10^−9%, zinc salt of BHMPA
[5] = corn seeds, solution concentration 1 · 10^−10%, zinc salt of BHMPA
[6] = corn seeds, solution concentration 1 · 10^−11%, zinc salt of BHMPA
[7] = corn seeds, solution concentration 1 · 10^−12%, zinc salt of BHMPA
[8] = corn seeds, solution concentration 1 · 10^−6%, copper salt of BHMPA
[9] = corn seeds, solution concentration 1 · 10^−7%, copper salt of BHMPA
[10] = corn seeds, solution concentration 1 · 10^−8%, copper salt of BHMPA
[11] = corn seeds, solution concentration 1 · 10^−9%, copper salt of BHMPA
[12] = corn seeds, solution concentration 1 · 10^−10%, copper salt of BHMPA
[13] = corn seeds, solution concentration 1 · 10^−11%, copper salt of BHMPA
[14] = corn seeds, solution concentration 1 · 10^−12%, copper salt of BHMPA

O=P([O-])(CO)CO.O=P([O-])(CO)CO.[Zn+2] [Zn-salt, Zinc BHMPA Salt]
optimum concentration for treating corn seeds before sowing (corn): 1·10^−8% | Length, root [1]: 5.3 cm | Length, root, + % to control [1]: 13% | Length, sprout [1]: 3.4 cm | Length, sprout, + % to control [1]: 3% | Mass, dry, root [1]: 1.17 g/100 plantlings | Mass, dry, root, + % to control [1]: 12.5% | Mass, dry, sprout [1]: 0.97 g/100 plantlings | Mass, dry, sprout, + % to control [1]: 13% | Mass, wet, root [1]: 6.98 g/100 plantlings | Mass, wet, root, + % to control [1]: 8.5% | Mass, wet, sprout [1]: 5.99 g/100 plantlings | Mass, wet, sprout, + % to control [1]: 5% | Length, root [2]: 5.6 cm | Length, root, + % to control [2]: 19% | Length, sprout [2]: 3.5 cm | Length, sprout, + % to control [2]: 6% | Mass, dry, root [2]: 1.30 g/100 plantlings | Mass, dry, root, + % to control [2]: 25% | Mass, dry, sprout [2]: 1.10 g/100 plantlings | Mass, dry, sprout, + % to control [2]: 28% | Mass, wet, root [2]: 7.46 g/100 plantlings | Mass, wet, root, + % to control [2]: 16% | Mass, wet, sprout [2]: 7.03 g/100 plantlings | Mass, wet, sprout, + % to control [2]: 24% | Length, root [3]: 5.9 cm | Length, root, + % to control [3]: 25.5% | Length, sprout [3]: 4.0 cm | Mass, dry, root [3]: 1.36 g/100 plantlings | Mass, dry, sprout [3]: 1.13 g/100 plantlings | Mass, wet, root [3]: 8.18 g/100 plantlings | Mass, wet, sprout [3]: 7.82 g/100 plantlings | Length, root [4]: 5.8 cm | Length, root, + % to control [4]: 23% | Length, sprout [4]: 3.8 cm | Length, sprout, + % to control [4]: 15% | Mass, dry, root [4]: 1.19 g/100 plantlings | Mass, dry, root, + % to control [4]: 14% | Mass, dry, sprout [4]: 1.06 g/100 plantlings | Mass, dry, sprout, + % to control [4]: 23% | Mass, wet, root [4]: 7.39 g/100 plantlings | Mass, wet, root, + % to control [4]: 15% | Mass, wet, sprout [4]: 6.99 g/100 plantlings | Mass, wet, sprout, + % to control [4]: 23% | Length, root [5]: 5.5 cm | Length, root, + % to control [5]: 15% | Length, sprout [5]: 3.7 cm | Length, sprout, + % to control [5]: 12% | Mass, dry, root [5]: 1.13 g/100 plantlings | Mass, dry, root, + % to control [5]: 9% | Mass, dry, sprout [5]: 1.00 g/100 plantlings | Mass, dry, sprout, + % to control [5]: 16% | Mass, wet, root [5]: 6.96 g/100 plantlings | Mass, wet, root, + % to control [5]: 8% | Mass, wet, sprout [5]: 6.29 g/100 plantlings | Mass, wet, sprout, + % to control [5]: 11% | Length, root [6]: 5.2 cm | Length, root, + % to control [6]: 11% | Length, sprout [6]: 3.6 cm | Length, sprout, + % to control [6]: 9% | Mass, dry, root [6]: 1.10 g/100 plantlings | Mass, dry, root, + % to control [6]: 6% | Mass, dry, sprout [6]: 0.97 g/100 plantlings | Mass, dry, sprout, + % to control [6]: 13% | Mass, wet, root [6]: 6.81 g/100 plantlings | Mass, wet, root, + % to control [6]: 6% | Mass, wet, sprout [6]: 5.93 g/100 plantlings | Mass, wet, sprout, + % to control [6]: 4% | Length, root [7]: 4.8 cm | Length, root, + % to control [7]: 2% | Length, sprout [7]: 3.5 cm | Length, sprout, + % to control [7]: 6% | Mass, dry, root [7]: 0.93 g/100 plantlings | Mass, dry, root, + % to control [7]: −10.5% | Mass, dry, sprout [7]: 0.89 g/100 plantlings | Mass, dry, sprout, + % to control [7]: 3% | Mass, wet, root [7]: 6.47 g/100 plantlings | Mass, wet, root, + % to control [7]: 1% | Mass, wet, sprout [7]: 5.71 g/100 plantlings | Mass, wet, sprout, + % to control [7]: 0.5% | Length, root, + % to control (corn, 1·10^−8% solution): 25.5% | Length, sprout, + % to control (corn, 1·10^−8% solution): 21% | Mass, dry, root, + % to control (corn, 1·10^−8% solution): 31% | Mass, dry, sprout, + % to control (corn, 1·10^−8% solution): 31% | Mass, wet, root, + % to control (corn, 1·10^−8% solution): 27% | Mass, wet, sprout, + % to control (corn, 1·10^−8% solution): 38%

Copper BHMPA Salt [Cu-salt]
optimum concentration for treating corn seeds before sowing (corn): 1·10^−8% | Length, root [8]: 5.2 cm | Length, root, + % to control [8]: 8% | Length, sprout [8]: 4.2 cm | Length, sprout, + % to control [8]: 20% | Mass, dry, root [8]: 1.27 g/100 plantlings | Mass, dry, root, + % to control [8]: 7% | Mass, dry, sprout [8]: 1.01 g/100 plantlings | Mass, dry, sprout, + % to control [8]: 2% | Mass, wet, root [8]: 8.99 g/100 plantlings | Mass, wet, root, + % to control [8]: 11% | Mass, wet, sprout [8]: 7.21 g/100 plantlings | Mass, wet, sprout, + % to control [8]: 15% | Length, root [9]: 5.4 cm | Length, root, + % to control [9]: 12.5% | Length, sprout [9]: 4.6 cm | Length, sprout, + % to control [9]: 31% | Mass, dry, root [9]: 1.38 g/100 plantlings | Mass, dry, root, + % to control [9]: 16% | Mass, dry, sprout [9]: 1.09 g/100 plantlings | Mass, dry, sprout, + % to control [9]: 10% | Mass, wet, root [9]: 9.81 g/100 plantlings | Mass, wet, root, + % to control [9]: 21% | Mass, wet, sprout [9]: 7.94 g/100 plantlings | Mass, wet, sprout, + % to control [9]: 27% | Length, root [10]: 5.6 cm | Length, sprout [10]: 4.8 cm | Length, sprout, + % to control [10]: 37% | Mass, dry, root [10]: 1.53 g/100 plantlings | Mass, dry, root, + % to control [10]: 28.5% | Mass, dry, sprout [10]: 1.17 g/100 plantlings | Mass, dry, sprout, + % to control [10]: 18% | Mass, wet, root [10]: 10.67 g/100 plantlings | Mass, wet, root, + % to control [10]: 31% | Mass, wet, sprout [10]: 8.82 g/100 plantlings | Mass, wet, sprout, + % to control [10]: 41% | Length, root [11]: 5.3 cm | Length, root, + % to control [11]: 10% | Length, sprout [11]: 4.7 cm | Length, sprout, + % to control [11]: 34% | Mass, dry, root [11]: 1.50 g/100 plantlings | Mass, dry, root, + % to control [11]: 26% | Mass, dry, sprout [11]: 1.13 g/100 plantlings | Mass, dry, sprout, + % to control [11]: 14% | Mass, wet, root [11]: 9.58 g/100 plantlings | Mass, wet, root, + % to control [11]: 18% | Mass, wet, sprout [11]: 8.75 g/100 plantlings | Mass, wet, sprout, + % to control [11]: 40% | Length, root [12]: 5.1 cm | Length, root, + % to control [12]: 6% | Length, sprout [12]: 4.4 cm | Length, sprout, + % to control [12]: 26% | Mass, dry, root [12]: 1.35 g/100 plantlings | Mass, dry, root, + % to control [12]: 13% | Mass, dry, sprout [12]: 1.07 g/100 plantlings | Mass, dry, sprout, + % to control [12]: 8% | Mass, wet, root [12]: 9.13 g/100 plantlings | Mass, wet, root, + % to control [12]: 12% | Mass, wet, sprout [12]: 7.88 g/100 plantlings | Mass, wet, sprout, + % to control [12]: 26% | Length, root [13]: 5.0 cm | Length, root, + % to control [13]: 4% | Length, sprout [13]: 3.9 cm | Length, sprout, + % to control [13]: 11% | Mass, dry, root [13]: 1.25 g/100 plantlings | Mass, dry, root, + % to control [13]: 5% | Mass, dry, sprout [13]: 0.97 g/100 plantlings | Mass, dry, sprout, + % to control [13]: −2% | Mass, wet, root [13]: 8.61 g/100 plantlings | Mass, wet, root, + % to control [13]: 6% | Mass, wet, sprout [13]: 6.79 g/100 plantlings | Mass, wet, sprout, + % to control [13]: 9% | Length, root [14]: 4.8 cm | Length, root, + % to control [14]: 0% | Length, sprout [14]: 3.7 cm | Length, sprout, + % to control [14]: 6% | Mass, dry, root [14]: 1.21 g/100 plantlings | Mass, dry, root, + % to control [14]: 2% | Mass, dry, sprout [14]: 0.92 g/100 plantlings | Mass, dry, sprout, + % to control [14]: −7% | Mass, wet, root [14]: 8.37 g/100 plantlings | Mass, wet, root, + % to control [14]: 3% | Mass, wet, sprout [14]: 6.35 g/100 plantlings | Mass, wet, sprout, + % to control [14]: 2% | Length, root, + % to control (corn, 1·10^−8% solution): 16% | Length, sprout, + % to control (corn, 1·10^−8% solution): 37% | Mass, dry, root, + % to control (corn, 1·10^−8% solution): 28.5% | Mass, dry, sprout, + % to control (corn, 1·10^−8% solution): 18% | Mass, wet, root, + % to control (corn, 1·10^−8% solution): 31% | Mass, wet, sprout, + % to control (corn, 1·10^−8% solution): 41%
